Assay results as given in paper PMC5884648, “Relationship between the agonist activity of synthetic ligands of TRAIL-R2 and their cell surface binding modes” (Oncotarget, 2018).
*1 amine or outer side, *2 acyl side, *3 side chain or, on linkers, in order; H or OH if unused. Where a SMILES comes first, the peptide text is derived from it. Bridges are numbered along the chain shown (N, C = ends). Roman numbers before positions name the chains, in order. X1 = CN(CCCC(=O)NC(CCC(=O)[*:1])CCC(=O)[*:2])C(=O)c1ccccc1-c1c2ccc(=N)c(S(=O)(=O)O)c-2oc2c(S(=O)(=O)O)c(N)ccc12; X2 = NC(CCC(=O)[*:1])CCC(=O)[*:2]

Experiments:
BJAB cells = experiment: Cell viability MTS assay, BJAB; type: cell-based, human; settings: 24 hours
Method: (§1) BJAB, Jurkat and HCT116 cells (10^5 cells/well) were cultured in 100 µL of culture medium in 96-flat bottom well plates. The next day, cells were treated with the indicated concentrations of the different TRAILmin/DR5 peptides. After 24 hours of treatment cell viability measurement was performed by the MTS assay according to the manufacturer specification (Promega Corporation, Madison, WI, USA).

HCT116 cells = experiment: Cell viability MTS assay, HCT116; type: cell-based, human; settings: 24 hours
Method: as §1

Jurkat cells = experiment: Cell viability MTS assay, Jurkat; type: cell-based, human; settings: 24 hours
Method: as §1

human TRAIL-R2 = target: T1, human TRAIL-R2 (Homo sapiens, UniProt O14763); experiment: Surface plasmon resonance on sensor-immobilized TRAIL-R2; type: binding; settings: for koff / kon: 25° C, Langmuir model
T1 construct: purchased Enzo Life Sciences
T1 sequence (O14763 56-440): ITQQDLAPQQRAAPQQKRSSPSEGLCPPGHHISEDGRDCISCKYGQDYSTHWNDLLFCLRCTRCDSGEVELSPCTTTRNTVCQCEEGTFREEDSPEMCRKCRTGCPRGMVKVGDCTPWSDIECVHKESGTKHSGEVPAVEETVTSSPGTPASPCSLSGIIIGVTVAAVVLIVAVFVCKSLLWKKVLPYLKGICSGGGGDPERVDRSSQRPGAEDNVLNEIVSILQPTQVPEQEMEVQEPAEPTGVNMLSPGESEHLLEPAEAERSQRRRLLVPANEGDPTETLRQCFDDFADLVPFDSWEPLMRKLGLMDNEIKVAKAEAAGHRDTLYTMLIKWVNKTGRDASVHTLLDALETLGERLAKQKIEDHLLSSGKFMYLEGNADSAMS
Method: SPR assays were performed on a Biacore T200™, at 25° C. The running buffer was HBS-EP [10 mM HEPES (pH 7.4) containing 0.15 M NaCl, 3.4 mM EDTA and 0.005% (v/v) Tween P20]. The human TRAIL-R2 (Enzo Life Sciences, Farmingdale, NY, USA) receptor was immobilized on a sCM5 sensor chip (GE Healthcare) using the standard amine coupling procedure. The receptors were diluted in 10 mM acetate buffer (pH 5.0) at a concentration of 5 μg/mL. The TRAIL-R2 immobilization level on the sensor chip was 430 RU. Peptides were injected at a flow rate of 5 μL/min for 120 s and allowed to dissociate for an additional 420 s. Surfaces were then regenerated for 5 s with 25 mM HCl. All binding curves were double-referenced (i.e. subtraction of the data of the empty flow cell followed by the subtraction of the data from a running buffer injection cycle).
(§2) Double-referenced SPR binding curves sets were fitted globally using the BIAevaluation 4.1.1 (GE Healthcare Biacore) or TraceDrawer (Ridgeview Diagnostics AB, Uppsala, Sweden) softwares. The signal recorded with the LigandTracer on an empty spot or slide was subtracted from that recorded on cell-carrying slides. The resulting binding curves were analyzed by kinetic distribution analysis using the tool Interaction Map (Ridgeview Diagnostics AB, Uppsala, Sweden). Interaction Map decomposes the kinetic curve recorded for the binding of a homogeneous ligand to a heterogeneous group of targets into its different components. Results are represented as interaction maps (kon versus koff, log scale), where the color of each populated area represents its degree of contribution to the kinetic curve (red = high contribution, blue = low contribution).

[1] = target: T2, TRAIL-R2 expressed on HCT116 cells (Homo sapiens, UniProt O14763); experiment: LigandTracer real time binding on living HCT116 cells; settings: HCT116 cells expressing TRAIL-R2
T2 construct: we used BJAB, HCT116 and Jurkat that express a natural level of TRAIL-R2 receptors; endogenous in cells; host or cells: HCT116
T2 sequence (O14763 56-440): as above
Method: The adherent cells HCT116-TRAIL-R2-DEF and HCT116 cells were directly plated on glass slides (Ø20 mm) (10^6 cells/well). The cells in suspension (BJAB and BJAB-TRAIL-R2-DEF) were covalently adhered to glass slides coated with poly-L-lysine (0.1% v/v) (Sigma Aldrich, Saint Louis, MO, USA). The adhesion was strong enough for measurement during 10h. After 24 hours, the slides were fixed with superglue at different locations of a Petri dish, which was inserted in the LigandTracer Green instrument (Ridgeview Instrument AB, Uppsala, Sweden). An empty spot or empty glass slide fixed to the Petri dish was used to record the background signal. This set-up allowed the simultaneous monitoring of the binding of a given peptide to different cell-carrying glass slides fixed to the dish. […] The fluorescence signal is recorded over time when the slide is out of the solution, and therefore corresponds to the amount of bound peptide. […]
Double-referenced SPR binding curves sets were fitted globally using the BIAevaluation 4.1.1 (GE Healthcare Biacore) or TraceDrawer (Ridgeview Diagnostics AB, Uppsala, Sweden) softwares. The signal recorded with the LigandTracer on an empty spot or slide was subtracted from that recorded on cell-carrying slides. The resulting binding curves were analyzed by kinetic distribution analysis using the tool Interaction Map (Ridgeview Diagnostics AB, Uppsala, Sweden). […]

[2] = target: T3, TRAIL-R2 expressed on Jurkat cells (Homo sapiens, UniProt O14763); experiment: LigandTracer real time binding on living Jurkat cells
T3 construct: we used BJAB, HCT116 and Jurkat that express a natural level of TRAIL-R2 receptors; endogenous in cells; host or cells: Jurkat
T3 sequence (O14763 56-440): as above

TRAIL-R2 on BJAB cells = target: T4, TRAIL-R2 on BJAB cells (Homo sapiens, UniProt O14763); experiment: Flow cytometry staining with fluorescent peptides, BJAB; type: binding
T4 construct: expressed in transfected cells
T4 sequence (O14763 56-440): as above
Method: (§3) 10^6 cells were washed in PBS containing 2% FCS and then incubated at 4° C for 30 min with an anti-TRAIL-R2 antibody (clone BK9 Diaclone, Besançon, France) according to concentration recommended by the manufacturer or with fluorescent peptides at the concentration of 1 µM. After two washes in PBS-2% FBS, TRAIL-R2 expression was monitored by flow cytometry (Guava easyCyte™, Merck Milipore, Darmstadt, Germany) and data were analyzed with InCyte Software (Merck Milipore).

TRAIL-R2 on HCT116 cells = target: T5, TRAIL-R2 on HCT116 cells (Homo sapiens, UniProt O14763); experiment: Flow cytometry staining with fluorescent peptides, HCT116; type: binding
T5 construct: we used BJAB, HCT116 and Jurkat that express a natural level of TRAIL-R2 receptors; endogenous in cells; host or cells: HCT116
T5 sequence (O14763 56-440): as above
Method: as §3

[3] = target: TRAIL-R2 expressed on BJAB cells (Homo sapiens, UniProt O14763); experiment: LigandTracer real time binding on living BJAB cells; set-up: expressed in transfected cells
TRAIL-R2 expressed on BJAB cells, sequence (O14763 56-440): as above
Method: The adherent cells HCT116-TRAIL-R2-DEF and HCT116 cells were directly plated on glass slides (Ø20 mm) (10^6 cells/well). The cells in suspension (BJAB and BJAB-TRAIL-R2-DEF) were covalently adhered to glass slides coated with poly-L-lysine (0.1% v/v) (Sigma Aldrich, Saint Louis, MO, USA). The adhesion was strong enough for measurement during 10h. After 24 hours, the slides were fixed with superglue at different locations of a Petri dish, which was inserted in the LigandTracer Green instrument (Ridgeview Instrument AB, Uppsala, Sweden). An empty spot or empty glass slide fixed to the Petri dish was used to record the background signal. This set-up allowed the simultaneous monitoring of the binding of a given peptide to different cell-carrying glass slides fixed to the dish. Three mL of solution (culture medium without or with fluorescent peptide) were added to the dish. In the LigandTracer instrument, the dish is tilted and rotates. Consequently the 3 mL solution covers only the lower part of the dish and each cell-carrying slide is alternatively in contact and out of contact with the solution (at intervals of 8 to 16 s). The fluorescence signal is recorded over time when the slide is out of the solution, and therefore corresponds to the amount of bound peptide. The solution in the dish was initially the culture medium (∼30 min) to provide a stable base line. The fluorescent peptide was then added in increasing doses (10, 30 and 90 nM) every two to three hours. Finally the peptide-containing sample was replaced with fresh medium and the dissociation of the peptide from the cells was followed overnight. The measurements were conducted at room temperature (approximately 20° C).
as §2

SMILES: CC[C@H](C)[C@@H]1NC(=O)[C@H](CCCNC(=N)N)NC(=O)[C@H](CC(N)=O)NC(=O)[C@H](CC(=O)O)NC(=O)[C@H](CC(C)C)NC(=O)[C@@H](NC(=O)[C@H](CC(=O)O)NC(=O)[C@H](Cc2c[nH]c3ccccc23)NC(C)=O)CSSC[C@@H](C(=O)N[C@H](C(=O)N[C@@H](CCCNC(=N)N)C(=O)N[C@@H](CC(C)C)C(N)=O)C(C)C)NC(=O)[C@H](CCC(N)=O)NC(=O)[C@H](CCCNC(=N)N)NC(=O)[C@H](CCCCNC(=O)CCC(N)CCC(=O)NCCCC[C@@H]2NC(=O)CNC(=O)[C@H]([C@@H](C)CC)NC(=O)[C@H](CCCNC(=N)N)NC(=O)[C@H](CC(N)=O)NC(=O)[C@H](CC(=O)O)NC(=O)[C@H](CC(C)C)NC(=O)[C@@H](NC(=O)[C@H](CC(=O)O)NC(=O)[C@H](Cc3c[nH]c4ccccc34)NC(C)=O)CSSC[C@@H](C(=O)N[C@H](C(=O)N[C@@H](CCCNC(=N)N)C(=O)N[C@@H](CC(C)C)C(N)=O)C(C)C)NC(=O)[C@H](CCC(N)=O)NC(=O)[C@H](CCCNC(=N)N)NC2=O)NC(=O)CNC1=O (stereo partly drawn) [2d] (I: Ac-WDCLDNRIGKRQCVRL-NH2 / II: Ac-WDCLDNRIGKRQCVRL-NH2; disulfide I:3-I:13, II:3-II:13; linker I:10-II:10 via X2; N-terminus and C-terminus assumed)
- apoptosis induction in BJAB cells (BJAB cells): underwent apoptosis
- apoptosis induction in HCT116 cells (HCT116 cells): strong resistance
- apoptosis induction in Jurkat cells (Jurkat cells): strong resistance
- koff (human TRAIL-R2; SPR): 0.00018 s⁻¹
- kon (human TRAIL-R2; SPR): 1.5e+06 M⁻¹ s⁻¹
- KD of 2d smaller than KD of 1d (human TRAIL-R2; SPR, ratio of KD 1d to 2d): approximately 400 fold
- Rmax (human TRAIL-R2; TRAIL-R2 surface 1, one:one interaction model): 33
- Rmax (human TRAIL-R2; TRAIL-R2 surface 2, one:one interaction model): 12

SMILES: CC[C@H](C)[C@@H]1NC(=O)[C@H](CCCNC(=N)N)NC(=O)[C@H](CC(N)=O)NC(=O)[C@H](CC(=O)O)NC(=O)[C@H](CC(C)C)NC(=O)[C@@H](NC(=O)[C@H](CC(=O)O)NC(=O)[C@H](Cc2c[nH]c3ccccc23)NC(C)=O)CSSC[C@@H](C(=O)N[C@H](C(=O)N[C@@H](CCCNC(=N)N)C(=O)N[C@@H](CC(C)C)C(N)=O)C(C)C)NC(=O)[C@H](CCC(N)=O)NC(=O)[C@H](CCCNC(=N)N)NC(=O)[C@H](CCCCNC(=O)CCC(CCC(=O)NCCCC[C@@H]2NC(=O)CNC(=O)[C@H]([C@@H](C)CC)NC(=O)[C@H](CCCNC(=N)N)NC(=O)[C@H](CC(N)=O)NC(=O)[C@H](CC(=O)O)NC(=O)[C@H](CC(C)C)NC(=O)[C@@H](NC(=O)[C@H](CC(=O)O)NC(=O)[C@H](Cc3c[nH]c4ccccc34)NC(C)=O)CSSC[C@@H](C(=O)N[C@H](C(=O)N[C@@H](CCCNC(=N)N)C(=O)N[C@@H](CC(C)C)C(N)=O)C(C)C)NC(=O)[C@H](CCC(N)=O)NC(=O)[C@H](CCCNC(=N)N)NC2=O)NC(=O)CCCN(C)C(=O)c2ccccc2-c2c3ccc(=N)c(S(=O)(=O)O)c-3oc3c(S(=O)(=O)O)c(N)ccc23)NC(=O)CNC1=O (stereo partly drawn) [f2d] (I: Ac-WDCLDNRIGKRQCVRL-NH2 / II: Ac-WDCLDNRIGKRQCVRL-NH2; disulfide I:3-I:13, II:3-II:13; linker I:10-II:10 via X1; N-terminus and C-terminus assumed)
- apoptosis induction in BJAB cells (BJAB cells): induced apoptosis
- apoptosis induction in HCT116 cells (HCT116 cells): scarcely induced their apoptosis
- koff (human TRAIL-R2; SPR): 0.00026 s⁻¹
- kon (human TRAIL-R2; SPR): 150000 M⁻¹ s⁻¹
- cell surface binding [1]: bound weakly
- cell surface binding [2]: weak binding signal, if any
- binding by flow cytometry (TRAIL-R2 on BJAB cells; BJAB cells deficient for TRAIL-R2, peptide 1 µM): not
- binding by flow cytometry (TRAIL-R2 on BJAB cells; BJAB cells expressing TRAIL-R2, peptide 1 µM): bound
- binding by flow cytometry (TRAIL-R2 on HCT116 cells; HCT116 cells deficient for TRAIL-R2, peptide 1 µM): not
- binding by flow cytometry (TRAIL-R2 on HCT116 cells; HCT116 cells expressing TRAIL-R2, peptide 1 µM): bound
- cell surface binding ([3]; BJAB cells deficient for TRAIL-R2): weak signals
- cell surface binding ([3]; BJAB cells expressing TRAIL-R2): strong binding
- fluorescent signal reached ([3]; BJAB cells that expressed TRAIL-R2, 10, 30 and (f1d) 90 nM): > 25
